Data: ChEMBL document CHEMBL4411258, “Novel natural compounds from endophytic fungi with anticancer activity” (Eur J Med Chem, 2018)
Converted amounts (≈) assume the structure as drawn. Each block holds one compound with its values, some of them ahead of it.

Columns and labels:
[1] = tested on: HCT-116; assay: Cytotoxicity against human HCT116 cells by MTT assay; assay type: functional, cell-based
[2] = tested on: KB; assay: Cytotoxicity against human KB cells by MTT assay; assay type: functional, cell-based
[3] = Cytotoxicity against human KATO III cells after 72 hrs by MTT assay; assay type: functional, cell-based
[4] = tested on: Vero; assay: Cytotoxicity against African green monkey Vero cells by resazurin microplate assay; assay type: cell-based; conditions: Chlorocebus sabaeus
[5] = tested on: MCF7; assay: Cytotoxicity against human MCF7 cells by resazurin microplate assay; assay type: functional, cell-based
[6] = tested on: NCI-H187; assay: Cytotoxicity against human NCI-H187 cells by resazurin microplate assay; assay type: functional, cell-based
[7] = tested on: HL-60; assay: Cytotoxicity against human HL60 cells by CCK8 assay; assay type: functional, cell-based
[8] = tested on: MCF7; assay: Cytotoxicity against human MCF7 cells by CCK8 assay; assay type: functional, cell-based
[9] = tested on: A549; assay: Cytotoxicity against human A549 cells by CCK8 assay; assay type: functional, cell-based
[10] = tested on: SW480; assay: Cytotoxicity against human SW480 cells by CCK8 assay; assay type: functional, cell-based
[11] = tested on: SMMC-7721; assay: Cytotoxicity against human SMMC7721 cells by CCK8 assay; assay type: functional, cell-based
[12] = tested on: L5178Y; assay: Cytotoxicity against mouse L5178Y cells by MTT assay; assay type: functional, cell-based
[13] = tested on: A2780; assay: Cytotoxicity against human cisplatin-sensitive A2780 cells by MTT assay; assay type: functional, cell-based
[14] = tested on: KB; assay: Cytotoxicity against human KB cells by resazurin microplate assay; assay type: functional, cell-based
[15] = tested on: HeLa; assay: Cytotoxicity against human HeLa cells after 48 hrs by sulforhodamine B assay; assay type: functional, cell-based
[16] = Inhibition of TNFalpha-induced NFkappaB (unknown origin) activation expressed in HEK293 cells after 6 hrs by luciferase reporter gene based assay; assay type: cell-based; conditions: Homo sapiens, HEK293, 6 h
[17] = Antiproliferative activity against HUVEC assessed as growth inhibition; assay type: cell-based; conditions: human, HUVEC cells
[18] = tested on: K562; assay: Antiproliferative activity against human K562 assessed as growth inhibition; assay type: functional
[19] = tested on: HeLa; assay: Cytotoxicity against human HeLa cells after 48 hrs by MTT assay; assay type: functional, cell-based
[20] = tested on: Bel-7402; assay: Cytotoxicity against human Bel7402 cells after 48 hrs by MTT assay; assay type: functional, cell-based; conditions: Bel-7402, 48 h
[21] = tested on: HCT-116; assay: Cytotoxicity against human HCT116 cells; assay type: functional, cell-based
[22] = tested on: HeLa; assay: Cytotoxicity against human HeLa cells; assay type: functional, cell-based
[23] = tested on: A549; assay: Cytotoxicity against human A549 cells; assay type: functional, cell-based
[24] = tested on: HL-60; assay: Cytotoxicity against human HL60 cells by trypan blue exclusion assay; assay type: functional, cell-based
[25] = tested on: K562; assay: Cytotoxicity against human K562 cells by trypan blue exclusion assay; assay type: functional, cell-based
[26] = tested on: HeLa; assay: Cytotoxicity against human HeLa cells by MTT assay; assay type: functional, cell-based
[27] = tested on: MCF7; assay: Cytotoxicity against human MCF7 cells by MTT assay; assay type: functional, cell-based
[28] = tested on: PC-3; assay: Cytotoxicity against human PC3 cells by MTT assay; assay type: functional, cell-based
[29] = tested on: SK-LU-1; assay: Cytotoxicity against human SKLU1 cells by MTT assay; assay type: functional, cell-based
[30] = tested on: U-251; assay: Cytotoxicity against human U251 cells by MTT assay; assay type: functional, cell-based
[31] = tested on: HCT-15; assay: Cytotoxicity against human HCT15 cells by MTT assay; assay type: functional, cell-based
[32] = tested on: MOLT-3; assay: Cytotoxicity against human MOLT3 cells by XTT assay; assay type: functional, cell-based
[33] = tested on: HL-60; assay: Cytotoxicity against human HL60 cells by XTT assay; assay type: functional, cell-based
[34] = tested on: PC-12; assay: Cytotoxicity against rat PC12 cells by MTT assay; assay type: functional, cell-based
[35] = tested on: HepG2; assay: Cytotoxicity against human HepG2 cells by MTT assay; assay type: functional, cell-based
[36] = tested on: MDA-MB-231; assay: Cytotoxicity against human MDA-MB-231 cells by MTT assay; assay type: functional, cell-based
[37] = tested on: HCT-116; assay: Cytotoxicity against human HCT116 cells after 48 hrs by MTT assay; assay type: functional, cell-based; conditions: HCT-116, 48 h
[38] = tested on: A549; assay: Cytotoxicity against human A549 cells after 48 hrs by MTT assay; assay type: functional, cell-based; conditions: Homo sapiens, A549, 48 h; read-out: IC50
[39] = tested on: HepG2; assay: Cytotoxicity against human HepG2 cells after 48 hrs by MTT assay; assay type: functional, cell-based; conditions: HepG2, 48 h
[40] = tested on: Vero; assay: Cytotoxicity against African green monkey Vero cells; assay type: cell-based; conditions: Chlorocebus sabaeus

Compound: CC1=C2[C@@H](O)C[C@@]2(C)[C@@H]2C[C@@H]3CC[C@@H](C)[C@@]2(CC1)C3(C)C
IC50 [1]: 25 µM
IC50 [2]: 25 µM

Compound: CC(=O)O[C@H]1C=CC(=O)O[C@H]1[C@H]1[C@H]2C=CC=C[C@](O)(O2)[C@H]1C
IC50 [3]: 1.95 to 40.2 µg/mL (≈ 6.37 to 131 µM)
IC50 [4]: 1.95 to 40.2 µg/mL (≈ 6.37 to 131 µM)
IC50 [5]: 1.95 to 40.2 µg/mL (≈ 6.37 to 131 µM)
IC50 [6]: 1.95 to 40.2 µg/mL (≈ 6.37 to 131 µM)

Compound: C=C1[C@@H](C)[C@H]2[C@H](Cc3ccccc3)NC(=O)[C@]23C(=O)/C=C/C(=O)CCC[C@@H](C)C/C=C/[C@H]3[C@@H]1O
IC50 [7]: 7.7 to 15.8 µM
IC50 [8]: 7.7 to 15.8 µM
IC50 [9]: 7.7 to 15.8 µM
IC50 [10]: 7.7 to 15.8 µM
IC50 [11]: 7.7 to 15.8 µM

Compound: C=C1[C@@H](C)[C@H]2[C@H](Cc3ccc(O)cc3)NC(=O)[C@]23[C@H](O)/C=C/[C@@H](C)C[C@@H](C)C/C=C/[C@H]3[C@@H]1O
IC50 [12]: 2.55 µM
IC50 [13]: 6.97 µM

Compound: COc1cc2oc(C)cc(=O)c2c(O)c1CC(C)c1ccco1 (configuration not stated)
IC50 [6]: 18 µg/mL (≈ 57.3 µM)
IC50 [14]: 43 µg/mL (≈ 137 µM)

Compound: C/C=C/[C@@H]1[C@@H]2C[C@@H](C)CC[C@@H]2[C@](C)(O)[C@@H]2Oc3c(-c4ccc(O)cc4)c[nH]c(=O)c3C(=O)[C@@H]12
IC50 [15]: 8.8 µM

IC50 [16]: 1500 nM
Compound: CCCCC[C@@H]1OC2=C(C(=O)N(OC)C2C[S@+]([O-])C[C@@H](O)C(=O)O)[C@H](O)[C@@]1(C)O (some centres not stated)

GI50 [18]: 85.5 µM
Compound: O=C1c2cccc(O)c2[C@H]2C[C@@H]1c1ccc3cccc(O)c3c1O2
GI50 [17]: 98.4 µM

Compound: COC(=O)[C@]1(OC)CCC(=O)N1Nc1ccc(OC)cc1OC
IC50 [19]: 15.5 µM
IC50 [20]: 8.1 µM

Compound: COC(=O)CC[C@@H](C(=O)OC/C=C(\C)CC/C=C(\C)CCC=C(C)C)N1Cc2c(cc(O)c(OC/C=C(\C)CC/C=C(\C)CCC=C(C)C)c2O)C1=O
IC50 [21]: 33 µM
IC50 [22]: 4.77 µM
IC50 [23]: 12 µM

Compound: CCCCc1c(OC)cc(=O)oc1CO
IC50 [24]: 0.45 µg/mL (≈ 2.12 µM)
IC50 [25]: 0.9 µg/mL (≈ 4.24 µM)

Compound: C[C@@H]1CC[C@@]23[C@H](C)CC[C@@H](C[C@H]2[C@]2(C)CC(=O)[C@H]12)C3(C)C
IC50 [26]: 30.1 µM
IC50 [27]: 30.7 µM

Compound: COC(=O)[C@@]12Oc3c(c(O)cc4c3[C@@H]3CC[C@]5(C4)C(=C(O)c4c(O)cc(C)cc4[C@@H]5O)C3=O)C(=O)C1=C(O)C=C[C@H]2O
IC50 [28]: 8.62 µM
IC50 [29]: 1160 nM
IC50 [30]: 5.32 µM
IC50 [27]: 7.93 µM
IC50 [31]: 10.3 µM

Compound: CC1(C)CC[C@@H](O)[C@](C)(O)[C@@]12CC=C(C=O)CC2
IC50 [32]: 165 µM
IC50 [33]: 159 µM

Compound: COc1cccc2c1C(=O)c1c(O)c3c(c(O)c1C2=O)C[C@@](O)(C(=O)CO)C[C@@H]3O[C@H]1C[C@H](N)[C@H](O)[C@H](C)O1 [DOXORUBICIN]
IC50 [12]: 4.6 µM
IC50 [34]: 5.71 µM

Compound: COc1ccc2c(c1)N(CC=C(C)C)C(=O)[C@@]21C=C2C(=O)N3CCC[C@H]3C(=O)N2[C@H]1C=C(C)C
IC50 [35]: 14.1 µM
IC50 [36]: 35.5 µM

Compound: C[C@H]1[C@@H](/C=C2\C=CC(=O)O2)[C@H]2C=CC=C[C@@H]1O2
IC50 [3]: 1.95 to 40.2 µg/mL (≈ 8.47 to 174 µM)
IC50 [4]: 1.95 to 40.2 µg/mL (≈ 8.47 to 174 µM)
IC50 [5]: 1.95 to 40.2 µg/mL (≈ 8.47 to 174 µM)
IC50 [6]: 1.95 to 40.2 µg/mL (≈ 8.47 to 174 µM)

Compound: COc1c(OC)c2c(c(OC)c1-c1c[nH]c3ccccc13)O[C@@H]1Nc3ccccc3[C@]21OC
IC50 [37]: 6.4 µg/mL (≈ 14.4 µM)
IC50 [38]: 3.5 µg/mL (≈ 7.87 µM)
IC50 [39]: 2.5 µg/mL (≈ 5.62 µM)

Compound: C[C@H]1C/C=C/[C@H]2[C@@H]3O[C@]3(C)[C@@H](C)[C@H]3[C@H](Cc4ccc(O)cc4)NC(=O)[C@]32OC(=O)O/C=C/[C@@](C)(O)C1=O
IC50 [40]: 1190 nM
